Earlier results on two molecules are cited in article PMC9633261, “Preclinical evaluation and first in human study of Al^18F radiolabeled ODAP-urea-based PSMA targeting ligand for PET imaging of prostate cancer” (Frontiers in Oncology, 2022).

Where two headings read alike, the source gives them in different places.

`O=C(O)CC[C@H](NC(=O)N[C@@H](CCCCNC(=O)c1ccc([18F])nc1)C(=O)O)C(=O)O` [^18F-DCFPyL]: for the setting “ref [39]”, the absorbed dose kidneys is reported as 0.0945 mGy/MBq.

Turning to `O=C([O-])CN(CCN(CC(=O)[O-])Cc1cc(CCC(=O)NCCCCCC(=O)NCCCC[C@H](NC(=O)N[C@@H](CCC(=O)O)C(=O)O)C(=O)O)ccc1[O-])Cc1cc(CCC(=O)O)ccc1[O-].[68Ga+3].[OH3+]` [^68Ga-PSMA-11], the absorbed dose kidneys runs as follows: (reported by Afshar-Oromieh et al. ref [37]) 0.262 mGy/MBq; (reported by Pfob et al. ref [38]) 0.121 mGy/MBq.
